# Legend:
# Assay in all cases: in vitro antibacterial evaluation, MIC by broth dilution
# Type in all cases: cell-based
# Staphylococcus sp. = details: broth dilution, 18 hours at 35° C.
# Procedure, shortened: (§1)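 Step 1: dilute antibiotic across 64-0.06 μg/mL in Muller-Hinton II […]. Step 2: inoculate at 5×10^5 CFU/mL.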
# Streptococcus sp. = details: broth dilution, 18 hours at 35° C.
# Procedure, shortened: as §1
# Escherichia coli = details: 18 hours at 35° C.
# Procedure, shortened: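 Test organisms, which included recent clinical isolates resistant to methicillin, penicillin and/or vancomycin, were inoculated at 5×10^5 CFU/mL into Muller-Hinton II […] containing antibiotic at 64-0.06 μg/mL. Minimum inhibitory concentrations were then read as the lowest level inhibiting growth.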
# Enterococcus sp. = details: broth dilution, 18 hours at 35° C.
# Procedure, shortened: as §1
compound,measurement,setting,value
"CC=C(C)C(=O)OC1C(CO)OC(OC2C(CO)OC(Oc3ccc(CC4NC(=O)C(C(C)c5ccccc5)NC(=O)CNC(=O)C(CO)NC(=O)C(C(O)C5CNC(=N)N5C5OC(CO)C(O)C(O)C5O)NC(=O)C(C(O)C5CNC(=N)N5)NC4=O)cc3)C(O)C2O)C(O)C1O (stereo not drawn) [Example 278b, Cyclo[glycyl-β-methylphenylalanyl-O-[4-O-[4-O-(2-methylbut-2-enoyl)hexopyranosyl]-hexopyranosyl]tyrosyl-3-(2-iminoimidazolidin-4-yl)seryl-3-(3-hexopyranosyl-2-imino-imidazolidin-4-yl)serylseryl]]",MIC Coagulase Negative Staphylococcus (GC 4547),Staphylococcus sp.,4 mg/L
same,MIC Coagulase Negative Staphylococcus (GC 4548),Staphylococcus sp.,4 mg/L
same,MIC Coagulase Negative Staphylococcus (GC 4549),Staphylococcus sp.,2 mg/L
same,MIC Coagulase Negative Staphylococcus (GC 4551),Staphylococcus sp.,8 mg/L
same,MIC Coagulase Negative Staphylococcus (GC 6257),Staphylococcus sp.,2 mg/L
same,MIC Staphylococcus aureus (ATCC 29213),Staphylococcus sp.,8 mg/L
same,MIC Staphylococcus aureus (GC 1131),Staphylococcus sp.,8 mg/L
same,MIC Staphylococcus aureus (GC 3051),Staphylococcus sp.,4 mg/L
same,MIC Staphylococcus aureus (GC 3053),Staphylococcus sp.,8 mg/L
same,MIC Staphylococcus aureus (GC 4541),Staphylococcus sp.,8 mg/L
same,MIC Staphylococcus aureus (GC 4542),Staphylococcus sp.,8 mg/L
same,MIC Staphylococcus aureus (GC 4544),Staphylococcus sp.,8 mg/L
same,MIC Staphylococcus aureus (GC 4545),Staphylococcus sp.,4 mg/L
same,MIC Staphylococcus aureus-SMITH (GC 4543),Staphylococcus sp.,8 mg/L
same,MIC Staphylococcus haemolyticus (GC 4546),Staphylococcus sp.,4 mg/L
same,MIC Staphylococcus aureus (ATCC 29213),Staphylococcus sp.; strain ATCC 29213,8 mg/L
same,MIC Staphylococcus aureus (GC 1131),Staphylococcus sp.; strain GC 1131,8 mg/L
same,MIC Staphylococcus aureus (GC 3051),Staphylococcus sp.; strain GC 3051,4 mg/L
same,MIC Staphylococcus aureus (GC 3053),Staphylococcus sp.; strain GC 3053,8 mg/L
same,MIC Staphylococcus aureus (GC 4541),Staphylococcus sp.; strain GC 4541,8 mg/L
same,MIC Staphylococcus aureus (GC 4542),Staphylococcus sp.; strain GC 4542,8 mg/L
same,MIC Staphylococcus aureus (GC 4544),Staphylococcus sp.; strain GC 4544,8 mg/L
same,MIC Staphylococcus aureus (GC 4545),Staphylococcus sp.; strain GC 4545,4 mg/L
same,MIC Staphylococcus haemolyticus (GC 4546),Staphylococcus sp.; strain GC 4546,4 mg/L
same,MIC Coagulase Negative Staphylococcus (GC 4547),Staphylococcus sp.; strain GC 4547,4 mg/L
same,MIC Coagulase Negative Staphylococcus (GC 4548),Staphylococcus sp.; strain GC 4548,4 mg/L
same,MIC Coagulase Negative Staphylococcus (GC 4549),Staphylococcus sp.; strain GC 4549,2 mg/L
same,MIC Coagulase Negative Staphylococcus (GC 4551),Staphylococcus sp.; strain GC 4551,8 mg/L
same,MIC Coagulase Negative Staphylococcus (GC 6257),Staphylococcus sp.; strain GC 6257,2 mg/L
same,MIC Staphylococcus aureus-SMITH (GC 4543),Staphylococcus sp.; strain SMITH GC 4543,8 mg/L
same,MIC Streptococcus pneumoniae (ATCC 6301),Streptococcus sp.; strain ATCC 6301,1 mg/L
same,MIC Streptococcus pneumoniae (GC 1894),Streptococcus sp.; strain GC 1894,1 mg/L
same,MIC Streptococcus pyogenes (GC 4563),Streptococcus sp.; strain GC 4563,2 mg/L
same,MIC Streptococcus agalactiae (GC 4564),Streptococcus sp.; strain GC 4564,4 mg/L
same,MIC Streptococcus pneumoniae (GC 4565),Streptococcus sp.; strain GC 4565,2 mg/L
same,MIC Escherichia coli (ATCC 25922),Escherichia coli; Escherichia coli (ATCC 25922),>64 mg/L
same,MIC Escherichia coli (GC 4559),Escherichia coli; Escherichia coli (GC 4559),>64 mg/L
same,MIC Escherichia coli (GC 4560),Escherichia coli; Escherichia coli (GC 4560),4 mg/L
same,MIC Enterococcus avium (GC 4558),Enterococcus sp.; Enterococcus avium (GC 4558),32 mg/L
same,MIC Enterococcus faecalis (ATCC 29212),Enterococcus sp.; Enterococcus faecalis (ATCC 29212),32 mg/L
same,MIC Enterococcus faecalis (GC 4553),Enterococcus sp.; Enterococcus faecalis (GC 4553),32 mg/L
same,MIC Enterococcus faecalis (GC 4554),Enterococcus sp.; Enterococcus faecalis (GC 4554),32 mg/L
same,MIC Enterococcus faecalis (GC 6189),Enterococcus sp.; Enterococcus faecalis (GC 6189),32 mg/L
same,MIC Enterococcus faecium (GC 2243),Enterococcus sp.; Enterococcus faecium (GC 2243),32 mg/L
same,MIC Enterococcus faecium (GC 4556),Enterococcus sp.; Enterococcus faecium (GC 4556),32 mg/L
same,MIC Enterococcus faecium (GC 4557),Enterococcus sp.; Enterococcus faecium (GC 4557),8 mg/L
same,MIC Enterococcus faecalis (ATCC 29212),Enterococcus sp.; strain ATCC 29212,32 mg/L
same,MIC Enterococcus faecalis (GC 2242),Enterococcus sp.; strain GC 2242,32 mg/L
same,MIC Enterococcus faecium (GC 2243),Enterococcus sp.; strain GC 2243,32 mg/L
same,MIC Enterococcus faecalis (GC 2691),Enterococcus sp.; strain GC 2691,32 mg/L
same,MIC Enterococcus faecalis (GC 3059),Enterococcus sp.; strain GC 3059,64 mg/L
same,MIC Enterococcus faecalis (GC 4552),Enterococcus sp.; strain GC 4552,32 mg/L
same,MIC Enterococcus faecalis (GC 4553),Enterococcus sp.; strain GC 4553,32 mg/L
same,MIC Enterococcus faecalis (GC 4554),Enterococcus sp.; strain GC 4554,32 mg/L
same,MIC Enterococcus faecium (GC 4556),Enterococcus sp.; strain GC 4556,32 mg/L
same,MIC Enterococcus faecium (GC 4557),Enterococcus sp.; strain GC 4557,8 mg/L
same,MIC Enterococcus avium (GC 4558),Enterococcus sp.; strain GC 4558,32 mg/L
same,MIC Enterococcus faecalis (GC 6189),Enterococcus sp.; strain GC 6189,32 mg/L

# From US6914045B2, “Glycopeptide antibiotics” (Wyeth Holdings Corporation, priority 2001, dated 2005)
